Broadly, the Ki is the equilibrium dissociation constant of an inhibitor or competing ligand from its target.

T1 sequence (P50406 whole entry): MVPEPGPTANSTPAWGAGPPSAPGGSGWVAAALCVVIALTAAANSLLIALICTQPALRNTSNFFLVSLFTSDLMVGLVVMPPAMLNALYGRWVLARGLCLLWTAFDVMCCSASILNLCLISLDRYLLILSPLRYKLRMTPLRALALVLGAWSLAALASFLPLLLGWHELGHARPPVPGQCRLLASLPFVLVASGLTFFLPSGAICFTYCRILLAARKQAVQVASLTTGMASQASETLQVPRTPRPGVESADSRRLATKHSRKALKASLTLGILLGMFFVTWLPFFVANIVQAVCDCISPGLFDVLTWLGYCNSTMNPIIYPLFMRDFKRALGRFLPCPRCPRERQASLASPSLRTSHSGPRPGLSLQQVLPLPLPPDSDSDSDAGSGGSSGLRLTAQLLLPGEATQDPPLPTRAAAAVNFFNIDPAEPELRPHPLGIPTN

The assay has as its target T1, 5HT6-human recombinant receptor (Homo sapiens, UniProt P50406).
T1 construct: purchased Receptor Biology; host or cells: HEK-293 cells (membranes)
Kind of assay: Binding to serotonin receptor 5-HT6 ([3H]-LSD displacement). As to conditions: membranes of HEK-293 cells expressing the receptor; radioligand [3H]-LSD 2.7 nM; 60 minutes at 37° C. The procedure:
I) Binding to Serotonin Receptor 5-HT6
Cell membranes of HEK-293 cells expressing the 5HT6-human recombinant receptor were supplied by Receptor Biology. In said membranes the receptor concentration is 2.18 pmol/mg protein and the protein concentration is 9.17 mg/ml. The experimental protocol follows the method of B. L. Roth et al. [B. L. Roth, S. C. Craigo, M. S. Choudhary, A. Uluer, F. J. Monsma, Y. Shen, H. Y. Meltzer, D. R. Sibley: Binding of Typical and Atypical Antipsychotic Agents to 5-Hydroxytryptamine-6 and Hydroxytryptamine-7 Receptors. The Journal of Pharmacology and Experimental Therapeutics, 1994, 268, 1403] with the following slight changes. The respective part of the literature description is hereby incorporated by reference and forms part of the disclosure.
The commercial membrane is diluted (1:40 dilution) with the binding buffer: 50 mM Tris-HCl, 10 mM MgCl2,0.5 mM EDTA (pH 7.4). The radioligand used is [^3H]-LSD at a concentration of 2.7 nM with a final volume of 200 μl. Incubation is initiated by adding 100 μl of membrane suspension, (≈22.9 μg membrane protein), and is prolonged for 60 minutes at a temperature of 37° C. The incubation is ended by fast filtration in a Brandel Cell Harvester through fiber glass filters made by Schleicher & Schuell GF 3362 pretreated with a solution of polyethylenimine at 0.5%. The filters are washed three times with three milliliters of buffer Tris-HCl 50 mM pH 7.4. The filters are transferred to flasks and 5 ml of Ecoscint H liquid scintillation cocktail are added to each flask. The flasks are allowed to reach equilibrium for several hours before counting with a Wallac Winspectral 1414 scintillation counter. Non-specific binding is determined in the presence of 100 μM of serotonin. Tests were made in triplicate. The inhibition constants (Ki, nM) were calculated by non-linear regression analysis using the program EBDA/LIGAND described in Munson and Rodbard, Analytical Biochemistry, 1980, 107, 220, the respective part of which is hereby incorporated by reference and forms part of the disclosure.
The binding of the substituted phenyl-piperazine compounds to the 5-HT6 receptor was determined as described above.
For `CN1CCN(c2ccc(C#N)c(NCc3ccccc3)c2)CC1` [Example 5, 2-Benzylamino-4-(4-methyl-piperazin-1-yl)-benzonitrile], the inhibition constant Ki was 108 nM. Then `COC(=O)c1ccc(N2CCN(C)CC2)cc1NCCc1ccccc1` [Example 6, 4-(4-Methyl-piperazin-1-yl)-2-phenethylamino-benzoic acid methyl ester], with 462 nM. To `CN1CCN(c2ccc(OCc3ccccc3)c(NCCc3ccccc3)c2)CC1` [Example 9, [2-Benzyloxy-5-(4-methyl-piperazin-1-yl)-phenyl]-phenethyl-amine] belongs 1280 nM. `CN1CCN(c2ccc(OCc3ccccc3)c(NCc3ccco3)c2)CC1` [Example 10]: the Ki was 402 nM.

In the case of `COc1ccc(N2CCN(C)CC2)cc1NCc1ccccc1` [Example 11, Benzyl-[2-methoxy-5-(4-methyl-piperazin-1-yl)-phenyl]-amine], the Ki was determined as 409 nM. Then `CC(=O)N(Cc1ccccc1)c1ccc(N2CCN(C)CC2)cc1N` [Example 23, N-[2-Amino-4-(4-methyl-piperazin-1-yl)-phenyl]-N-benzyl-acetamide], with 164 nM; and `CN1CCN(c2ccc(NS(=O)(=O)c3ccccc3)c(NCc3ccccc3)c2)CC1` [Example 24, N-[2-Benzylamino-4-(4-methyl-piperazin-1-yl)-phenyl]-benzenesulfonamide], with 60.2 nM.

Values taken from US20090042904A1 (LABORATORIOS DEL DR. ESTEVE S.A., priority 2004, published 2009).
